Key:
h-EP4 [1] = biological target: T1, h-EP4 (Homo sapiens, UniProt P35408); assay: EP4 receptor binding assay (3H-PGE2 SPA); conditions: EP4 receptor membranes, 20 nM 3H-PGE2, pH 6.0, 2 hrs room temperature
Description: Compounds of the invention were tested in an EP4 receptor binding assay of the following protocol.
(§1) A mixture containing 20 μg of EP4 receptor membranes, 0.5 mg of wheat germ agglutinin coated PVT-SPA beads, with or without compounds of the invention (25 μl per well) or 10 μM of cold PGE2 at 1% DMSO and 20 nM ^3H-PGE2 in assay buffer containing 25 mM MES, 10 mM MgCl2, 1 mM EDTA, pH 6.0 are incubated in Corning 3600 plates on a plate shaker for 2 hrs at room temperature. ^3H-PGE2 binding is evaluated by counting the plates on the top count using the ^3H SPA dpm2 program. The percentage of binding and Ki value for inhibitors are calculated based on the one site competition parameter using the Graphpad® prism program.

h-EP2 [2] = biological target: T2, h-EP2 (Homo sapiens, UniProt P43116); assay: Prostaglandin EP2 receptor binding assay (3H-PGE2 SPA); conditions: EP2 receptor membranes, 20 nM 3H-PGE2, pH 6.0, 2 hrs room temperature
Description: Compounds of the invention were tested in an EP2 receptor binding assay of the following protocol. As referred to herein, the term an “EP2 receptor binding assay” designates the following protocol.
as §1, with “EP2” for “EP4”, “compound” for “compounds”

h-EP2 [3] = biological target: T2, h-EP2; assay: EP2 total cAMP assay in HEK293-EBNA cells transfected with pCEP4-hEP2; format: cell-based; conditions: 1 hour 37° C.
Description: Therefore, the compounds of the invention are tested for their ability in modulating cAMP levels in cells over-expressing EP2 or EP4 (Example 25 below) receptors.
(§2) Compounds of the invention are tested in a total cAMP assay as follows. HEK293-EBNA cells transfected with pCEP4-hEP2 receptors are seeded in 96 well opaque plate (Costar #3917) at 4×10^4 cells per well in 100 μl of culture medium (D-MEM/F12 supplemented with 10% FBS, […] L-glutamine, and 250 μg/ml of hygromycin; all from Gibco BRL) and incubated at 37° C. After overnight incubation, the medium is removed from each well and replaced with 45 μl of assay medium consisted of phenol red free D-MEM/F-12, 0.1% BSA (Gibco BRL) and 0.1 mM 3-isobutyl-1-methyl-xanthine (Sigma). After 15 minutes of incubation at 37° C., 16-16-dimethyl PGE-2 or compounds at desired concentrations in 20 μl of assay medium are added to cells and further incubated at 37° C. for 1 hour. Total cAMP (intra- and extra-cellular) is measured by using a cAMP-screen ELISA System (Tropix, #CS1000).

h-EP4 [4] = biological target: T1, h-EP4; assay: EP4 total cAMP assay in HEK293-EBNA cells transfected with hEP4; format: cell-based; conditions: 1 hour 37° C.
Description: as §2, with “pCFP4-hEP4” for “pCEP4-hEP2”

[5] = test system: hepatitis B viral replication; conditions: oral administration, chronic hepatitis B patients; cited from earlier work

T2 sequence (P43116 whole entry): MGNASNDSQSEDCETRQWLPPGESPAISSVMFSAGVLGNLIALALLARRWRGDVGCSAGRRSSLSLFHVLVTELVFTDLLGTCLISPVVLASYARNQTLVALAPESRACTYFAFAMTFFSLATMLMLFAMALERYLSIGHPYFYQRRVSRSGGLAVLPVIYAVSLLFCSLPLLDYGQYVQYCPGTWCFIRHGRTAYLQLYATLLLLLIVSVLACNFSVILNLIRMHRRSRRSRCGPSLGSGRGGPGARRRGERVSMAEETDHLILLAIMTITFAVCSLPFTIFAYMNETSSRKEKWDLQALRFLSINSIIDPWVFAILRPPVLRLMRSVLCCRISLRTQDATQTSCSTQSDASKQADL
T1 sequence (P35408 whole entry): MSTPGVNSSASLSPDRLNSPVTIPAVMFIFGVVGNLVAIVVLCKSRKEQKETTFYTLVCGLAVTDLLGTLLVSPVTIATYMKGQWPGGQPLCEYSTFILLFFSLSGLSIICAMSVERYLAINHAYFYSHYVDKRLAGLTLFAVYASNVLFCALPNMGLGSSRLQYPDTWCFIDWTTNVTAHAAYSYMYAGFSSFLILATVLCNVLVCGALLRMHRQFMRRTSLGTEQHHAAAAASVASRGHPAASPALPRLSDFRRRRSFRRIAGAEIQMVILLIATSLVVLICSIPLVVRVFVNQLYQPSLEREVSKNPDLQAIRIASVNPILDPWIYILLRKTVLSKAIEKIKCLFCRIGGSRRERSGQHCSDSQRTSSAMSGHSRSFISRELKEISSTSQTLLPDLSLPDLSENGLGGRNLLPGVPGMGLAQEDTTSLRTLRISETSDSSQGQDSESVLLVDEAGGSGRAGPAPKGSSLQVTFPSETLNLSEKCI

Ki (h-EP4 [1])	Ki (h-EP2 [2])	Structure (SMILES)	also measured
400 nM	32900 nM	CCCCCC(O)CCNN(CCc1ccc(C(=O)O)cc1)C(C)=O (stereo not drawn) [Example 2, 4-{2-[1-acetyl-2-(3-hydroxyoctyl)hydrazino]ethyl}benzoic acid]	EC50 (h-EP2 [3]): 6030 nM
530 nM	4450 nM	CC(=O)N(CCc1ccc(C(=O)O)cc1)NCCC(O)Cc1cccc(C(F)(F)F)c1 (stereo not drawn) [Example 4, 4-[2-(1-acetyl-2-{3hydroxy-4-[3-(trifluoromethyl)phenyl]butyl}hydrazino)ethyl]benzoic acid]	EC50 (h-EP4 [4]): 0.4 nM
332 nM		CC(C)C(=O)N(CCc1ccc(C(=O)O)cc1)NCCC(O)Cc1cccc(C(F)(F)F)c1 (stereo not drawn) [Example 6, 4-[2-(2-{3-hydroxy-4-[3-(trifluoromethyl)phenyl]butyl}-1-isobutyryl hydrazino)ethyl]benzoic acid]	
45 nM	4210 nM	CC(=O)N(CCc1ccc(C(=O)O)cc1)NCCC(O)Cc1cccc(C#Cc2ccccc2)c1 (stereo not drawn) [Example 7, 4-[2-(1-acetyl-2-{3-hydroxy-4-[3-(phenylethynyl)phenyl]butyl}hydrazino)ethyl]benzoic acid]	EC50 (h-EP4 [4]): 0.15 nM
115 nM		CC(=O)N(CCc1ccc(C(=O)O)cc1)NCCC(O)Cc1cccc(-c2ccccc2)c1 (stereo not drawn) [Example 8, 4-(2-{1-acetyl-2-[4-(1,1′-biphenyl-3-yl)-3-hydroxybutyl]hydrazino}ethyl)benzoic acid]	
149 nM		CC(=O)N(CCc1ccc(C(=O)O)cc1)NCCC(O)Cc1cccc(Br)c1 (stereo not drawn) [Example 9, 4-(2-{1-acetyl-2-[4-(3-bromophenyl)-3-hydroxybutyl]hydrazino}ethyl) benzoic acid]	
97 nM		CC(=O)N(CCc1ccc(C(=O)O)cc1)NCCC(O)Cc1cccc(I)c1 (stereo not drawn) [Example 10, 4-(2-{1-acetyl-2-[3-hydroxy-4-(3-iodophenyl)butyl]hydrazino}ethyl)benzoic acid]	
131 nM		C#Cc1cccc(CC(O)CCNN(CCc2ccc(C(=O)O)cc2)C(C)=O)c1 (stereo not drawn) [Example 16, 4-(2-{1-acetyl-2-[4-(3ethynylphenyl)-3-hydroxybutyl]hydrazino}ethyl) benzoic acid]	
		CCCCC[C@H](O)/C=C/[C@H]1[C@H](O)CC(=O)[C@@H]1C/C=C\CCCC(=O)O [PGE2, Prostaglandin E2]	patients with sustained loss of viral replication [5]: 47%

— patent US7465755B2, “Hydrazide derivatives as prostaglandin receptors modulators” (Laboratoires Serono SA, priority 2003, dated 2008)
